Experimental data taken from patent publication US8877748B2, “Heterocyclic fused anthraquinone derivatives, manufacturing method and pharmaceutical composition using thereof” (National Defense Medical Center, priority 2012, dated 2014).
“And” between values parts separate entries of the source, which are not always exact repeats. Identical values can stand only once. Like-named read-outs stand apart in the source and are kept apart here.

Experiments:
[1] = system: PC-3 prostate cancer cell line; assay: SRB assay cell viability, PC-3 prostate cancer cell line; assay type: cell-based, human; conditions: Homo sapiens
SF-268 = assay: NCI one-dose screening, CNS cancer SF-268; assay type: cell-based, human; conditions: 10 μM
UACC-62 = assay: NCI one-dose screening, melanoma UACC-62; assay type: cell-based, human; conditions: 10 μM
PRMI-8226 cell line = assay: NCI one-dose screening, leukemia PRMI-8226; assay type: cell-based, human; conditions: 10 μM
SF-539 = assay: NCI one-dose screening, CNS cancer SF-539; assay type: cell-based, human; conditions: 10 μM
HCT-116 = assay: NCI one-dose screening, colon cancer HCT-116; assay type: cell-based, human; conditions: 10 μM
MALME-3M = assay: NCI one-dose screening, melanoma MALME-3M; assay type: cell-based, human; conditions: 10 μM
MOLT-4 = assay: NCI one-dose screening, leukemia MOLT-4; assay type: cell-based, human; conditions: 10 μM
LOX IMVI = assay: NCI one-dose screening, melanoma LOX IMVI; assay type: cell-based, human; conditions: 10 μM
HS 578-T = assay: NCI one-dose screening, breast cancer HS 578-T; assay type: cell-based, human; conditions: 10 μM; Breast cancer
DU145 = assay: NCI one-dose screening, prostate cancer DU145; assay type: cell-based, human; conditions: 10 μM
OVCAR-3 = assay: NCI one-dose screening, ovarian cancer OVCAR-3; assay type: cell-based, human; conditions: 10 μM
K562cell line = assay: NCI one-dose screening, leukemia K562; assay type: cell-based, human; conditions: 10 μM
NCI-H226 = assay: NCI one-dose screening, non-small cell lung cancer NCI-H226; assay type: cell-based, human; conditions: 10 μM
OVCAR-4 = assay: NCI one-dose screening, ovarian cancer OVCAR-4; assay type: cell-based, human; conditions: 10 μM
T-47D = assay: NCI one-dose screening, breast cancer T-47D; assay type: cell-based, human; conditions: 10 μM
MCF7 = assay: NCI one-dose screening, breast cancer MCF7; assay type: cell-based, human; conditions: 10 μM
MDA-MB-468 = assay: NCI one-dose screening, breast cancer MDA-MB-468; assay type: cell-based, human; conditions: 10 μM
SN12C = assay: NCI one-dose screening, renal cancer SN12C; assay type: cell-based, human; conditions: 10 μM
SK-OV-3 = assay: NCI one-dose screening, ovarian cancer SK-OV-3; assay type: cell-based, human; conditions: 10 μM
human tumor cell lines = assay: NCI one-dose screening, Mean / Delta / Range of growth percent over all tested cell lines; assay type: cell-based; conditions: 10 μM
SK-MEL-5 = assay: NCI one-dose screening, melanoma SK-MEL-5; assay type: cell-based, human; conditions: 10 μM
KM12 = assay: NCI one-dose screening, colon cancer KM12; assay type: cell-based, human; conditions: 10 μM
SNB-19 = assay: NCI one-dose screening, CNS cancer SNB-19; assay type: cell-based, human; conditions: 10 μM
MDA-MB-231/ATCC = assay: NCI one-dose screening, breast cancer MDA-MB-231/ATCC; assay type: cell-based, human; conditions: 10 μM
SF-295 = assay: NCI one-dose screening, CNS cancer SF-295; assay type: cell-based, human; conditions: 10 μM
OVCAR-8 = assay: NCI one-dose screening, ovarian cancer OVCAR-8; assay type: cell-based, human; conditions: 10 μM
NCI-H460 = assay: NCI one-dose screening, non-small cell lung cancer NCI-H460; assay type: cell-based, human; conditions: 10 μM
TK-10 = assay: NCI one-dose screening, renal cancer TK-10; assay type: cell-based, human; conditions: 10 μM
CCRF-CEM = assay: NCI screening platform one-dose single concentration screening, leukemia CCRF-CEM; assay type: cell-based, human; conditions: 10 μM
HL-60, TB = assay: NCI one-dose screening, leukemia HL-60, TB; assay type: cell-based, human; conditions: 10 μM
CAKI-1 = assay: NCI one-dose screening, renal cancer CAKI-1; assay type: cell-based, human; conditions: 10 μM
HCC-2998 = assay: NCI one-dose screening, colon cancer HCC-2998; assay type: cell-based, human; conditions: 10 μM
UO-31 = assay: NCI one-dose screening, renal cancer UO-31; assay type: cell-based, human; conditions: 10 μM
SK-MEL-28 = assay: NCI one-dose screening, melanoma SK-MEL-28; assay type: cell-based, human; conditions: 10 μM
HOP-62 = assay: NCI one-dose screening, non-small cell lung cancer HOP-62; assay type: cell-based, human; conditions: 10 μM
SR = assay: NCI one-dose screening, leukemia SR; assay type: cell-based, human; conditions: 10 μM
COLO 205 = assay: NCI one-dose screening, colon cancer COLO 205; assay type: cell-based, human; conditions: 10 μM
IGROV1 = assay: NCI one-dose screening, ovarian cancer IGROV1; assay type: cell-based, human; conditions: 10 μM
BT-549 = assay: NCI one-dose screening, breast cancer BT-549; assay type: cell-based, human; conditions: 10 μM
RXF, 393 = assay: NCI one-dose screening, renal cancer RXF, 393; assay type: cell-based, human; conditions: 10 μM
786-O = assay: NCI one-dose screening, renal cancer 786-O; assay type: cell-based, human; conditions: 10 μM
UACC-257 = assay: NCI one-dose screening, melanoma UACC-257; assay type: cell-based, human; conditions: 10 μM
A549/ATCC = assay: NCI one-dose screening, non-small cell lung cancer A549/ATCC; assay type: cell-based, human; conditions: 10 μM
SNB-75 = assay: NCI one-dose screening, CNS cancer SNB-75; assay type: cell-based, human; conditions: 10 μM
PC-3 = assay: NCI one-dose screening, prostate cancer PC-3; assay type: cell-based, human; conditions: 10 μM
NCI-H522 = assay: NCI one-dose screening, non-small cell lung cancer NCI-H522; assay type: cell-based, human; conditions: 10 μM
HOP-92 = assay: NCI one-dose screening, non-small cell lung cancer HOP-92; assay type: cell-based, human; conditions: 10 μM
HCT-15 = assay: NCI one-dose screening, colon cancer HCT-15; assay type: cell-based, human; conditions: 10 μM
NCI-H23 = assay: NCI one-dose screening, non-small cell lung cancer NCI-H23; assay type: cell-based, human; conditions: 10 μM
SK-MEL-2 = assay: NCI one-dose screening, melanoma SK-MEL-2; assay type: cell-based, human; conditions: 10 μM
[2] = NCI one-dose screening, renal cancer A489; assay type: cell-based, human; conditions: 10 μM
NCI-H322M = assay: NCI one-dose screening, non-small cell lung cancer NCI-H322M; assay type: cell-based, human; conditions: 10 μM; Non-small cell lung cancer
M14 = assay: NCI one-dose screening, melanoma M14; assay type: cell-based, human; conditions: 10 μM
U251 = assay: NCI one-dose screening, CNS cancer U251; assay type: cell-based, human; conditions: 10 μM

## O=C1c2ccccc2C(=O)c2c1cc(Sc1ccccc1)c1nsnc21 [C19, 4-(phenylthio)anthra[2,1-c][1,2,5] thiadiazol-6,11-dione]
[1]; PC-3 prostate cancer cell line, Table II prints no unit, μM printed, read-out: SRB assay: 50% inhibition of cancer cell proliferation of sample concentration (IC50) of PC-3 prostate cancer cell line
  IC50: 28.6 µM
[1]; PC-3 prostate cancer cells, read-out: IC50 in PC-3 prostate cancer cells (cell viability analysis)
  IC50: > 15 µM
SF-268
  Growth Percent SF-268: 102.24%
UACC-62
  Growth Percent UACC-62: 86.28%
PRMI-8226 cell line
  Growth Percent RPMI-8226: 78.21%
SF-539
  Growth Percent SF-539: 106.54%
HCT-116
  Growth Percent HCT-116: 90.08%
MALME-3M
  Growth Percent MALME-3M: 106.43%
MOLT-4
  Growth Percent MOLT-4: 31.08%
LOX IMVI
  Growth Percent LOX IMVI: 42%
HS 578-T
  Growth Percent HS 578T: 95.89%
DU145
  Growth Percent DU145: 102.73%
OVCAR-3
  Growth Percent OVCAR-3: 96.67%
K562cell line
  Growth Percent K562: 52.03%
NCI-H226
  Growth Percent NCI-H226: 117.67% and 94.91%
OVCAR-4
  Growth Percent OVCAR-4: 57.83%
T-47D
  Growth Percent T-47D: 93.21%
MCF7
  Growth Percent MCF7: 94.88%
MDA-MB-468
  Growth Percent MDA-MB-468: 87.29%
SN12C
  Growth Percent SN12C: 96.58%
SK-OV-3
  Growth Percent SK-OV-3: 105.6%
Human tumor cell lines; delta over all cell lines
  Growth Percent Delta: 77.74%
Human tumor cell lines; mean over all cell lines
  Growth Percent Mean: 93.48%
Human tumor cell lines; range over all cell lines
  Growth Percent Range: 123.73%
SK-MEL-5
  Growth Percent SK-MEL-5: 85.68%
KM12
  Growth Percent KM12: 99.5%
SNB-19
  Growth Percent SNB-19: 108.79%
MDA-MB-231/ATCC
  Growth Percent MDA-MB-231/ATCC: 66.67%
SF-295
  Growth Percent SF-295: 106.36%
OVCAR-8
  Growth Percent OVCAR-8: 82.3%
NCI-H460
  Growth Percent NCI-H460: 100.74%
TK-10
  Growth Percent TK-10: 143.47%
CCRF-CEM
  Growth Percent CCRF-CEM: 15.74%
HL-60, TB
  Growth Percent HL-60(TB): 83.94%
CAKI-1
  Growth Percent CAKI-1: 89.04%
HCC-2998
  Growth Percent HCC-2998: 110.88%
UO-31
  Growth Percent UO-31: 80.12%
SK-MEL-28
  Growth Percent SK-MEL-28: 127.12%
HOP-62
  Growth Percent HOP-62: 97.77%
SR
  Growth Percent SR: 86.41%
COLO 205
  Growth Percent COLO 205: 117.53%
IGROV1
  Growth Percent IGROV1: 84.4%
BT-549
  Growth Percent BT-549: 104.68%
RXF, 393
  Growth Percent RXF 393: 114.31%
786-O
  Growth Percent 786-0: 110.04%
UACC-257
  Growth Percent UACC-257: 92.75%
A549/ATCC
  Growth Percent A549/ATCC: 105.68%
SNB-75
  Growth Percent SNB-75: 96.12%
PC-3
  Growth Percent PC-3: 87.32%
NCI-H522
  Growth Percent NCI-H522: 100.56%
HOP-92
  Growth Percent HOP-92: 110.22%
HCT-15
  Growth Percent HCT-15: 93.89%
NCI-H23
  Growth Percent NCI-H23: 101.59%
SK-MEL-2
  Growth Percent SK-MEL-2: 112.49%
[2]
  Growth Percent A498: 95.01%
NCI-H322M
  Growth Percent NCI-H322M: 79.21%
M14
  Growth Percent M14: 106.41%
U251
  Growth Percent U251: 88.75%
